From US20130338574A1, “ORAL MEDICINAL COMPOSITION FOR PATIENTS UNDERGOING PERITONEAL DIALYSIS AND METHOD FOR USING SAME” (TOKAI UNIVERSITY EDUCATIONAL SYSTEM, priority 2010, published 2013)

Tests used:
[1] = Transfer of pyridoxamine into blood and peritoneal cavity after oral administration to uremic rat models; assay type: in vivo, Sprague-Dawley male rats; conditions: oral 30 mg/rat/day, 7 days
From the text: (§1) The uremic rat models were produced using 7-week-old (body weight: 300 g or less) Sprague-Dawley male rats (CLEA Japan, Inc.) by the method described in NPL 27 and NPL 28. More specifically, the above rats were first subjected to 1/3 nephrectomy under anesthesia, and then to 1/2 nephrectomy after a week, thereby producing 5/6 nephrectomy rats (rats with kidney subtotal excision). These rats were allowed to freely take a standard diet for experimental rats (containing 1.06% calcium, 0.9% phosphate, and 21% protein; CE2: CLEA Japan, Inc.) and tap water until the eve of slaughter.
The kidney subtotal excision rats with chronic renal failure (uremic rat models) produced in the above manner were separated into two groups (each group: n=3). Distilled water for injection (Otsuka Pharmaceutical Co., Ltd.; here and below) was orally administered compulsorily to Group 1 (control group) once a day, while a pyridoxamine salt aqueous solution prepared by dissolving 30 mg of pyridoxamine dihydrochloride (Sigma; here and below) in 2 mL of distilled water for injection was orally administered compulsorily to Group 2 (pyridoxamine salt orally administered group) once a day. On the 6th day of administration, after distilled water for injection and the pyridoxamine salt aqueous solution were orally administered, respectively, to Groups 1 and 2, 20 ml of a peritoneal dialysis fluid (pH 4.5 to 5.5) (trade name: Dianeal (registered trademark) PD-4 4.25; Baxter Limited) was injected intraperitoneally to both groups.
Subsequently, on the 7th day of administration, as normal, distilled water for injection was orally administered compulsorily to Group 1, and the pyridoxamine salt aqueous solution was orally administered compulsorily to Group 2. […]
When the quantitative analysis of pyridoxamine and dicarbonyl compounds (3-deoxyglucosone) in the samples was performed by liquid chromatography (HPLC), the above frozen test samples (serum and intraperitoneal fluid) were used after natural thawing at room temperature.
First, 50 μL of each test sample (serum and intraperitoneal fluid) was taken in a test tube. […] Subsequently, the mixture was subjected to centrifugation at 12,000 rpm at 4° C. for 10 minutes to precipitate proteins, and the supernatant was then collected for use as a sample for pyridoxamine quantitative analysis by HPLC.
The quantitative analysis of pyridoxamine was carried out under the HPLC conditions described in Experimental Example 1 (2). The quantitative analysis was performed using a standard calibration curve previously prepared by measurement under the above HPLC conditions using standard solutions of pyridoxamine of known concentrations.

[2] = test system: dicarbonyl compounds (3-deoxyglucosone) in the intraperitoneal fluid; assay: 3-deoxyglucosone in intraperitoneal fluid of uremic rat models, acid peritoneal dialysis fluid (Experimental Example 2); assay type: in vivo, Sprague-Dawley male rats; conditions: oral 30 mg/rat/day, 7 days
From the text: as §1, with “slaughter. […]” for “slaughter.”
When the quantitative analysis of pyridoxamine and dicarbonyl compounds (3-deoxyglucosone) in the samples was performed by liquid chromatography (HPLC), the above frozen test samples (serum and intraperitoneal fluid) were used after natural thawing at room temperature. […]
The quantitative analysis of dicarbonyl compounds (3-deoxyglucosone) was performed by reversed-phase high-performance liquid chromatography (HPLC) under the following conditions. The quantitative analysis was performed using a standard calibration curve previously prepared by measurement under the following HPLC conditions using standard solutions of 3-deoxyglucosone of known concentrations. […]
Detection: UV detection of absorbance at a wavelength of 315 nm (UV detector: Shimadzu Corporation)

[3] = within an hour after last administration, Dianeal PD-4 4.25 i.p. on 6th day

SMILES: Cc1ncc(CO)c(CN)c1O.Cl.Cl [pyridoxamine dihydrochloride, Pyridoxamine dihydrochloride]
- Pyridoxamine amount in intraperitoneal fluid ([1]; amount in 20.8 ml of collected intraperitoneal fluid): 321 µg
- pyridoxamine concentration in the intraperitoneal cavity, Group 2 relative to Group 1 (control) [1]: ≥ 65 times
- Pyridoxamine concentration in intraperitoneal fluid [1, 3]: 14.7 µg/mL
- Pyridoxamine concentration in serum [1, 3]: 13.8 µg/mL
- 3-deoxyglucosone concentration in the peritoneal cavity relative to control group ([2]; acid peritoneal dialysis fluid): less than one-third
- 3-deoxyglucosone concentration in intraperitoneal fluid ([2]; acid peritoneal dialysis fluid (pH 4.5 to 5.5) Dianeal PD-4 4.25, 20 ml i.p., control group 30.8): 9.9 µg/mL
